Experimental data: patent US10512656B2, “Compositions and methods for the treatment of lysosomal storage disorders and disorders characterized by lysosomal dysfunction” (Baylor College of Medicine, priority 2016, dated 2019)

Key:
lysosomal genes = test: Microarray expression analysis (gene ontology, GSEA) of fibroblasts; type: cell-based, human
Description: Total RNA from control and JNCL fibroblasts with and without trehalose treatment (100 mM, 4 days) was used to prepare complementary DNA for hybridization to the Illumina Human HT-12 V4.0 array platform. Experiments were performed in triplicate. Expression analysis was performed at the Microarray Core and Cell and Regulatory Biology, University of Texas, Houston, Tex., USA. A […] was used as a threshold for significance for assessing differential gene expression. GSEA was performed as previously described^10,11. The cumulative distribution function was constructed by performing 1,000 random gene set membership assignments. A nominal P<0.01 and an FDR<10% were used as thresholds for significance of the ES. Gene ontology analysis was performed with the web tool DAVID (https://david.ncifcrf.gov/) using default parameters. Pathway co-expression analyses were performed as previously described^8,9, and Cytoscape was used to represent graphically the expression correlation data.

Cln3^Δex7-8 mice [1] = test: Corpus callosum volume by MRI; type: in vivo, mouse; conditions: 12-month-old Cln3^Δex7-8 mice, trehalose; untreated 12.96±0.43 mm^3
Description: Mice were transcardially perfused before imaging. The head was removed and then the skin, muscle, ears, nose tip and lower jaw were removed to expose the skull. The head was fixed overnight in 4% paraformaldehyde at 4° C. The head was then transferred to 40 mLs of 0.01% sodium azide in PBS and rocked for 7 days at 4° C. The head was transferred to a solution of 5 mM gadopentetate dimeglumine (Bayer HealthCare Pharmaceuticals Inc., Wayne, N.J.) and 0.01% sodium azide in PBS and rocked for 25-35 days at 4° C. Incubation with gadopentetate dimeglumine improved the signal-to-noise ratio. Before imaging, the head was equilibrated to room temperature for 6-8 h.
A total of 48 scans per mouse were acquired on a 9.4 T Bruker Avance Biospec Spectrometer, 21-cm bore horizontal scanner with 35 mm volume resonator (Bruker BioSpin, Billerica, Mass.) with Paravision 5.0 software (Bruker Biospin, Billerica, Mass.). The three-dimensional DTI scan parameters are as follows: spin echo, b-value=0 and 1,000 s/mm^2, 20 diffusion directions with one non-diffusion weighted image, TR=500 ms, TE=14.8 ms, FOV=1.7×1.2×2.4 cm or 2.0×1.4×3.2 cm, matrix=128×96×96, NEX=1, δ=3 ms, Δ=7 ms. The acquisition time was ˜15 h.
The MRI images were first processed on DTI studio to extrapolate the fractional anisotropy. […]

HeLa cells = test: Autophagic flux in HeLa cells (LAMP1, p62, LC3 markers); type: cell-based, human; conditions: time course
Description: FIG. 14. Akt phosphorylates TFEB at Ser467. […] Dashed boxes (upper row) show the location of the higher power inserts (lower row). (b) Subcellular fractionation of HeLa/TFEB cells incubated with the same kinase inhibitors. (c) Multi-alignment of TFEB amino-acid sequences from the following species: Ac, Anolis carolensis; Bt, Bos taurus; Dr, Danio rerio; Fc, Felix catus; Gg, gallus gallus; Hs, Homo sapiens; La, Loxodonta africana; Mm, Mus musculus; Rn, Rattus Norvegicus; Sh, Sarcophilus harrisii; Sp, Strongylocentrotus purpuratus; XI, Xenopus laevis. A consensus logo of Akt phosphorylation sites (generated at weblogo.berkeley.edu/logo.cgi) is aligned with TFEB sequences. Position 467 refers to the human protein sequence. (d) Subcellular localization of TFEB and TFEB(S467A). (e) Expression analysis of lysosomal and autophagy genes in HeLa cells transfected with TFEB or TFEB(S467A). […]
Brain tissue and cultured cells were collected and lysed in RIPA buffer (50 mM Tris-HCl, ph 7.4, 1% NP40, 0.5% Na-deoxycholate, 0.1% SDS, 150 mM NaCl, 2 mM EDTA and 50 mM NaF) including a cocktail of protease (Roche) and phosphatase (SIGMA) inhibitors. Protein concentrations were measured with the bicinchoninic acid protein assay kit (Pierce, Rockford, Ill.), using bovine serum albumin as standard. […] Western blot images were acquired by LAS 4000 (GE Healthcare) and quantified using ImageJ. […]

Cln3^Δex7-8 mice [2] = test: TEM counting of fingerprint profiles; type: in vivo, mouse
Description: Mice were anaesthetized and perfused intracardially with saline solution followed by 2% formaldehyde+2.5% glutaraldehyde in 0.1M sodium cacodylate buffer (pH 7.4). Brains were removed and small pieces of cerebellum and cortex were collected, and further postfixed in 2% formaldehyde|o2.5% glutaraldehyde, 0.1M sodium cacodylate buffer (pH 7.4) for 24 h. One-hundred micrometer coronal sections were cut with a vibratome and fixed in 1% OsO4 in 0.1M cacodylate for 1 h, stained with uranyl acetate dehydrated and embedded in Eponate 812. Ultrathin sections at 60 nm were obtained on an RMC MT6000 ultramicrotome and examined with a Hitachi H7500 transmission electron microscope. Images were captured using a Gatan US1000 high-resolution digital camera and Digital Micrograph software (v1.82.366).

SMILES: OC[C@H]1O[C@H](O[C@H]2O[C@H](CO)[C@@H](O)[C@H](O)[C@H]2O)[C@H](O)[C@@H](O)[C@@H]1O [trehalose, a-D-glucopyranosyl a-D-glucopyranoside]
- GSEA enrichment score, TFEB direct targets with a known role in lysosomal metabolism (lysosomal genes; control fibroblasts, P<0.0001): 0.82
- GSEA enrichment score, lysosomal genes (lysosomal genes; control fibroblasts, P<0.0001): 0.67
- gene ontology fold enrichment of lysosomal metabolism genes (lysosomal genes; genes with at least twofold change, JNCL and control fibroblasts, trehalose 100 mM 4 days): > 5
- corpus callosum volume (Cln3^Δex7-8 mice [1]): 15.02±0.33 mm^3
- autophagic flux (HeLa cells): increasing autophagic flux
- number of fingerprint profiles (Cln3^Δex7-8 mice [2]; Purkinje cells, P=0.047): significantly reduced the number of fingerprint profiles
- number of fingerprint profiles (Cln3^Δex7-8 mice [2]; cortical neurons, P=0.017): significantly reduced the number of fingerprint profiles
